In experiment [1] the target is Apelin receptor (Homo sapiens) (UniProt P35414). The experiment can be described thus: APJ beta-arrestin recruitment blockade alongside CXCR6 – cell-based, DiscoveRx, panel, CHO-K1, counter-screen for CXCR6 antagonist project, SAR follow-up (AID 651598). To be noted: CHO-K1 PathHunter beta-arrestin luminescence, antagonist mode; APJ; mean of runs.
Experiment [2] concerns the target C-X-C chemokine receptor type 6 (Homo sapiens) (UniProt O00574). The description is as above. As to conditions: CHO-K1 PathHunter beta-arrestin luminescence, antagonist mode; CXCR6; mean of runs.

Calls of active or inactive are those of the source.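 How the source made its calls: active means CXCR6 IC50 under 10 µM and IC50 at the unrelated APJ receptor at least five times higher; inactive means the rest.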

Apelin receptor (Homo sapiens), sequence (P35414 whole entry, looked up): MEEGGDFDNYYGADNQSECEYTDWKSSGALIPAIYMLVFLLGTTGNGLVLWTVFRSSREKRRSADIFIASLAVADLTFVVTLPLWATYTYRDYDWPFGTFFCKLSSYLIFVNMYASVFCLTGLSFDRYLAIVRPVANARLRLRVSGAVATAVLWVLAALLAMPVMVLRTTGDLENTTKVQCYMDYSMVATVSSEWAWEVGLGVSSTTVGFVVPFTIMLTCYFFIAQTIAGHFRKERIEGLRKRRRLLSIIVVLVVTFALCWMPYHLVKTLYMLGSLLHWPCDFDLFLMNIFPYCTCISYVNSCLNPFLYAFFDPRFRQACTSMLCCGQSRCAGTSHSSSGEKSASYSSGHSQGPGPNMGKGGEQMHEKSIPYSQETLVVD
C-X-C chemokine receptor type 6 (Homo sapiens), sequence (O00574 whole entry, looked up): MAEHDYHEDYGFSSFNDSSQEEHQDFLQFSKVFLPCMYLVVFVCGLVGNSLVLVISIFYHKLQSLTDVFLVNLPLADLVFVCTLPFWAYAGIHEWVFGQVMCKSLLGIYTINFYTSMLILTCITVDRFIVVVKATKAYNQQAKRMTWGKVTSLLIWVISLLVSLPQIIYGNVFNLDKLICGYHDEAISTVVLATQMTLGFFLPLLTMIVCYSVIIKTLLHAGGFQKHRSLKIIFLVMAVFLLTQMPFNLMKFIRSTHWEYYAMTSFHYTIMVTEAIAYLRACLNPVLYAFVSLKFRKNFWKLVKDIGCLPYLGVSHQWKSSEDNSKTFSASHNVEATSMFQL

As to `COc1cc(C(=O)NC2CC3CCCC(C2)N3CC(=O)Nc2ccccc2)cc(OC)c1OC` (centres undefined), the IC50 in experiment [1] was > 80 µM (inactive). As for `COc1cc(C(=O)NC2CCN(CC(=O)Nc3ccccc3)CC2)cc(OC)c1OC`, the IC50 in experiment [2] and in experiment [1] was > 80 µM (inactive) each time. Turning to `COc1cc(C(=O)NC2CC3CCC(C2)N3CC(=O)Nc2ccccc2)cc(OC)c1OC` (centres undefined), the IC50 in experiment [1] was > 80 µM (inactive).

By IC50 is commonly meant the concentration that gives 50% inhibition.

The values are drawn from PubChem BioAssay AID651598 (Sanford-Burnham Center for Chemical Genomics, 2012).
